Measurements as given in PMC12562379, “Facile Synthesis of N-vinylindoles via Knoevenagel Condensation: Molecular Features and Biological Activities” (International Journal of Molecular Sciences, 2025).
In brackets after ≈: the same amount, converted by molar mass. Structures can show the parent of a compound that is named as a salt. Where two headings read alike, the source gives them in different places.

How the values were obtained:
S. aureus MRSA 12673 = assay: Microbroth dilution assay; assay type: cell-based; conditions: Staphylococcus aureus
S. aureus ATCC 6535 = assay: Microbroth dilution assay; assay type: cell-based; conditions: Staphylococcus aureus, ATCC6535
E. coli ATCC 8739 = assay: Microbroth dilution assay; assay type: cell-based; conditions: Escherichia coli, ATCC8739
Experimental: (§1) The minimum inhibitory concentration (MIC) and minimum bactericidal/fungicidal concentration (MBC/MFC) of the tested compounds were determined by the microbroth dilution technique using 96-well plates based on the methodology described in the EUCAST (European Committee on Antimicrobial Susceptibility Testing) standards. Reference and clinical strains of Gram-positive (Staphylococcus aureus ATCC 6538, Staphylococuccus aureus MRSA 6347) and Gram-negative (Escherichia coli ATCC 8739) bacteria, and yeast (Candida albicans ATCC 10231, Candida glabrata ATCC 2001) were used for the assay. The studies were carried out in the Mueller–Hinton (MH) broth for bacteria and RPMI 1640 broth + MOPS (Sigma-Aldrich, Poland) buffer in the case of yeast. The dry test samples were dissolved in DMSO (dimethyl sulfoxide), resulting in a final concentration of 15 mg/mL, and then diluted in a geometric progression. Ampicillin (Sigma-Aldrich, Poland) acted as a control sample (512 to 4 µg/mL) for bacteria and ketoconazole (128 to 1 µg/mL) (Sigma-Aldrich, Poland) acted as a control sample for yeast. The cultures of microorganisms were prepared by transferring cells from the stock cultures to tubes with the appropriate broth and incubated with agitation in an aerobic atmosphere for 18 ± 2 h at 35 ± 1 °C; next, they were diluted to achieve an optical density corresponding to 5 × 105 (bacteria) or 2 × 105 (yeast) colony-forming units per mL (cfu/mL). An appropriate media (96 µL), along with the tested compounds with a final concentration range of 300–3.1 µg/mL (4 µL) and next microbial suspension (100 µL) were added to each well. Plates with samples were incubated in adequate conditions described above and microbial growth was assessed. […] (>90%; ketoconazole) but 50% (for other compounds) inhibits visible growth of yeasts. Next, as a control of microbial viability, 100 µL of the samples from each well without growth was inoculated on the MH or RPMI agar plates and incubated for 18 ± 2 h at 35 ± 1 °C and finally, the CFU was counted. The MBC/MFC was determined as the minimum concentration of compounds required to kill 99.9% the organisms.

C. albicans ATCC 10231 = assay: Microbroth dilution assay; assay type: cell-based, Candida albicans; conditions: Candida albicans, ATCC10231, C. albicans ATCC 10231; for MFC: read-out: MFC; for MIC: read-out: MIC
Experimental: as §1

C. glabrata ATCC 2001 = assay: Microbroth dilution assay; assay type: cell-based, Candida glabrata; conditions: Nakaseomyces glabratus, ATCC2001
Experimental: as §1

HaCaT = assay: MTT assay, cytotoxic activity on non-cancerous keratinocytes; assay type: cell-based; conditions: Homo sapiens, 24 h, n = 12
Experimental: (§2) The human ovarian SKOV-3, gastric adenocarcinoma AGS, cervical HeLa cell lines and non-cancerous keratinocytes HaCaT were obtained from the American Type Culture Collection (ATCC, Manassas, VA, USA). The cell lines were cultured in McCoy’s Medium, Dulbecco’s Modified Eagle’s Medium/F12, and DMEM, respectively (Merck Millipore, Burlington, MA, USA). Penicillin (100 units/mL), streptomycin ([…]), and 10% (v/v) fetal bovine serum (FBS) were added to all the media. The cells were incubated at 37 °C and 5% CO2.
(§3) To estimate the cytotoxic activity of the obtained compounds 2a-i, MTT assay was used. The cells (5 × 10^3 cells/well) were treated with the compounds in a range of concentrations 1–150 µg/mL. […] After 24 h, MTT solution (0.5 mg/mL) was added to the cells. Formazan crystals were dissolved in DMSO and the absorbance was measured with a microtiter plate reader (Epoch, BioTek Instruments, Winooski, VT, USA).

[1] = tested on: HeLa, SKOV-3, AGS (and HaCaT) cell lines; assay: MTT assay, ranges stated over several cell lines; assay type: cell-based, human; conditions: Homo sapiens
Experimental: as §2, §3

HeLa = assay: MTT assay, cytotoxic activity; assay type: cell-based, human; conditions: Homo sapiens, 24 h, n = 12
Experimental: as §2, §3

SKOV-3 = assay: MTT assay, cytotoxic activity; assay type: cell-based, human; conditions: Homo sapiens, SK-OV-3; SKOV-3, MTT, 24 h, n = 12
Experimental: as §2, §3

AGS = assay: MTT assay, cytotoxic activity; assay type: cell-based, human; conditions: Homo sapiens, 24 h, n = 12
Experimental: as §2, §3

[2] = molecular target: T1, AGE2-BSA/sRAGE interaction (Homo sapiens, UniProt Q15109); assay: ELISA AGE2-BSA/sRAGE inhibitory screening; assay type: binding
T1 construct: purchased Creative BioMart
Experimental: The in vitro inhibitor screening of AGE2 (glyceraldehyde-modified AGE)-sRAGE interaction (soluble RAGE) was performed using a 96-well AGE-BSA-coated plate (Creative BioMart® ELISA kit, Shirley, NY, USA), according to the manufacturer’s instructions. 100 UA/mL soluble RAGE (sRAGE) was incubated with 100 μM of the tested compounds or 0.05% DMSO as a negative control on an AGE2-BSA-coated plate at room temperature for 60 min, shaking at 300 rpm on an orbital microplate shaker. After incubation, the wells were washed 4 times with wash buffer and horseradish peroxidase (HRP)-labeled anti-RAGE antibody was added and the plate was further incubated at room temperature for 60 min, shaking at 300 rpm on an orbital microplate shaker. After incubation, the wells were washed 4 times with wash buffer and the Substrate Reagent was added to each well. After an incubation at room temperature for 5 min, the HRP-labeled antibody sRAGE-AGE complex was then detected by measuring the absorbance at 450 nm using the microplate reader Varioskan (Thermo Fischer Scientific). These experiments were repeated two times.

[3] = tested on: S. aureus ATCC 6535, S. aureus MRSA 12673 and other tested bacterial and yeast strains; assay: Microbroth dilution assay, ranges stated over several strains; assay type: cell-based; conditions: all tested microorganisms
[4] = range over HeLa and SKOV-3 cell lines
[5] = S. aureus MRSA 12673, read-out: MIC
[6] = E. coli ATCC 8739, read-out: MIC
[7] = range over the cancer cell lines HeLa, SKOV-3 and AGS

T1 sequence (Q15109 23-342 limits assumed): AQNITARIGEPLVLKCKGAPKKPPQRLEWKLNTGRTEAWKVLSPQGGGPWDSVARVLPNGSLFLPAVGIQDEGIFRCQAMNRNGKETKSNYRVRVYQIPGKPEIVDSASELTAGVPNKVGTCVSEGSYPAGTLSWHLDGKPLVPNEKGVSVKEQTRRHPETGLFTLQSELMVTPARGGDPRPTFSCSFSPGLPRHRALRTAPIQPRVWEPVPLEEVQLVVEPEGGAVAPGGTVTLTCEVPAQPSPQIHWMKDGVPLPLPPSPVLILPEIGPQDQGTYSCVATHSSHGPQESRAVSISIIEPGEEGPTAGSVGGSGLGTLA

SMILES | MIC (S. aureus ATCC 6535) | MIC (C. albicans ATCC 10231) | MIC (C. glabrata ATCC 2001) | MIC (S. aureus MRSA 12673; [5]) | MIC (E. coli ATCC 8739; [6]) | inhibition at 100 µM [2] | MBC (S. aureus MRSA 12673; S. aureus MRSA 12673) | MBC (S. aureus ATCC 6535) | MBC (E. coli ATCC 8739; E. coli ATCC 8739) | MFC (C. albicans ATCC 10231) | MFC (C. glabrata ATCC 2001) | IC50 (HaCaT) | IC50 [1, 4] | IC50 (HeLa) | IC50 (SKOV-3) | IC50 (AGS) | IC50 [1, 7] | further results
CC1(C)S[C@@H]2[C@H](NC(=O)[C@H](N)c3ccccc3)C(=O)N2[C@H]1C(=O)O [Ampicillin, reference compound] | 8 µg/mL (≈ 22.9 µM) |  |  |  |  |  | 512 µg/mL (≈ 1470 µM) | 8 µg/mL (≈ 22.9 µM) | 128 µg/mL (≈ 366 µM) |  |  |  |  |  |  |  |  | MIC (S. aureus MRSA 12673; MRSA): 512 µg/mL (≈ 1470 µM); MIC (E. coli ATCC 8739): 128 µg/mL (≈ 366 µM)
CC(=O)N1CCN(c2ccc(OCC3COC(Cn4ccnc4)(c4ccc(Cl)cc4Cl)O3)cc2)CC1 (centres unmarked) [Ketoconazole, reference compound] |  | > 128 µg/mL | 64 µg/mL (≈ 120 µM) |  |  |  |  |  |  | > 128 µg/mL | 128 µg/mL (≈ 241 µM) |  |  |  |  |  |  | 
CC[C@]1(O)C[C@@H]2CN(CCc3c([nH]c4ccccc34)[C@@](C(=O)OC)(c3cc4c(cc3OC)N(C)[C@H]3[C@@](O)(C(=O)OC)[C@H](OC(C)=O)[C@]5(CC)C=CCN6CC[C@]43[C@@H]65)C2)C1 [Vinblastine sulfate, reference compound] |  |  |  |  |  |  |  |  |  |  |  |  |  | 0.005 ± 0.0004 µg/mL | 0.008 ± 0.0003 µg/mL |  |  | 

Continued, in another order:

MIC (S. aureus ATCC 6535) | MIC (C. albicans ATCC 10231) | MIC (C. glabrata ATCC 2001) | MIC (S. aureus MRSA 12673; [5]) | MIC (E. coli ATCC 8739; [6]) | inhibition at 100 µM [2] | SMILES | MBC (S. aureus MRSA 12673; S. aureus MRSA 12673) | MBC (S. aureus ATCC 6535) | MBC (E. coli ATCC 8739; E. coli ATCC 8739) | MFC (C. albicans ATCC 10231) | MFC (C. glabrata ATCC 2001) | IC50 (HaCaT) | IC50 [1, 4] | IC50 (HeLa) | IC50 (SKOV-3) | IC50 (AGS) | IC50 [1, 7] | further results
55 µg/mL (≈ 165 µM) | > 220 µg/mL | > 220 µg/mL | 110 µg/mL (≈ 331 µM) | 220 µg/mL (≈ 662 µM) |  | O=[N+]([O-])c1ccc(/C=C(/C2=NCCN2)n2ccc3ccccc32)cc1 [Compound 2g, (Z)-1-[1-(4,5-dihydro-1H-imidazol-2-yl)-2-(4-nitrophenyl)vinyl]-1H-indole] | > 220 µg/mL | 110 µg/mL (≈ 331 µM) | > 220 µg/mL | > 220 µg/mL | > 220 µg/mL | 9.15 ± 0.74 µg/mL (≈ 27.5 µM) | 5.6 to 7.06 µg/mL (≈ 16.8 to 21.2 µM) | 5.6 ± 0.57 µg/mL (≈ 16.8 µM) | 7.06 ± 0.62 µg/mL (≈ 21.2 µM) | 10.14 ± 0.08 µg/mL (≈ 30.5 µM) |  | 
27.5 µg/mL (≈ 75.1 µM) | 110 µg/mL (≈ 300 µM) | 220 µg/mL (≈ 601 µM) | 55 µg/mL (≈ 150 µM) | 110 µg/mL (≈ 300 µM) | 46.6% | Brc1ccc(/C=C(/C2=NCCN2)n2ccc3ccccc32)cc1 [Compound 2f, (Z)-1-[2-(4-bromophenyl)-1-(4,5-dihydro-1H-imidazol-2-yl)vinyl]-1H-indole] | 110 µg/mL (≈ 300 µM) | 55 µg/mL (≈ 150 µM) | 110 µg/mL (≈ 300 µM) | 110 µg/mL (≈ 300 µM) | 220 µg/mL (≈ 601 µM) | 3.13 ± 0.09 µg/mL (≈ 8.55 µM) | 2.37 to 2.76 µg/mL (≈ 6.47 to 7.54 µM) | 2.37 ± 0.15 µg/mL (≈ 6.47 µM) | 2.76 ± 0.18 µg/mL (≈ 7.54 µM) | 11.1 ± 1.24 µg/mL (≈ 30.4 µM) | 2.37 to 11.1 µg/mL (≈ 6.47 to 30.4 µM) | 
120 µg/mL (≈ 356 µM) | > 240 µg/mL | 240 µg/mL (≈ 711 µM) | 120 µg/mL (≈ 356 µM) | > 240 µg/mL | 36.4% | C(=C(\C1=NCCN1)n1ccc2ccccc21)/c1cccc2ccccc12 [Compound 2h, (Z)-1-[1-(4,5-dihydro-1H-imidazol-2-yl)-2-(naphthalen-1-yl)vinyl]-1H-indole] | 240 µg/mL (≈ 711 µM) | 240 µg/mL (≈ 711 µM) | > 240 µg/mL | > 240 µg/mL | 240 µg/mL (≈ 711 µM) | 17.9 ± 1.93 µg/mL (≈ 53.2 µM) |  | 10.1 ± 1.12 µg/mL (≈ 29.9 µM) | 10.39 ± 0.1 µg/mL (≈ 30.8 µM) | 18.9 ± 1.81 µg/mL (≈ 56 µM) | 10.1 to 18.9 µg/mL (≈ 29.9 to 56 µM) | MBC/MFC [3]: ≥ 240 µg/mL; Inhibition (%) of AGE2-BSA/sRAGE interaction ([2]; 100 µM): 36.3%
